Patent US10294202B2, “Pyrrolidinones as herbicides” (FMC Corporation, priority 2013, dated 2019)

Key:
giant foxtail = test: Test A pre-/postemergence herbicide test; format: in vivo, Setaria faberii
In short: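 Visual 0–100 ratings (100 = complete control) made about 10 days after treatment, greenhouse-held plants compared with untreated controls. Treatments: postemergence sprays on one- to two-leaf plants (2–10 cm tall) and preemergence directed soil sprays after planting in loam–sand, chemicals formulated in non-phytotoxic solvent containing surfactant.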

ryegrass, Italian = test: Test C pre-/postemergence herbicide test; format: in vivo, Lolium multiflorum; conditions: Preemergence
From the text: (§1) Seeds of plant species selected from blackgrass (Alopecurus myosuroides), ryegrass, Italian (Italian ryegrass, Lolium multiflorum), wheat (winter wheat, Triticum aestivum), galium (catchweed bedstraw, Galium aparine), corn (Zea mays), crabgrass, large (large crabgrass, Digitaria sanguinalis), foxtail, giant (giant foxtail, Setaria faberii), johnsongrass (Sorghum halepense), lambsquarters (Chenopodium album), morningglory (Ipomoea coccinea), nutsedge, yellow (yellow nutsedge, Cyperus esculentus), pigweed (Amaranthus retroflexus), ragweed (common ragweed, Ambrosia elatior), soybean (Glycine max), barnyardgrass (Echinochloa crus-galli), oilseed rape (Brassica napus), waterhemp (common waterhemp, Amaranthus rudis), kochia (Kochia scoparia), oat, wild (wild oat, Avena fatua), surinam grass (Brachiaria decumbens), foxtail, green (green foxtail, Setaria viridis), goosegrass (Eleusine indica), bromegrass, downy (downy bromegrass, Bromus tectorum), nightshade (eastern black nightshade, Solanum ptycanthum), cocklebur (common cocklebur, Xanthium strumarium), cupgrass, woolly (woolly cupgrass, Eriochloa villosa), bermudagrass (Cynodon dactylon), sunflower, (common oilseed sunflower, Helianthus annuus), Russian thistle (Salsola kali) and velvetleaf (Abutilon theophrasti) were planted into a blend of loam soil and sand and treated preemergence with test chemicals formulated in a non-phytotoxic solvent mixture which included a surfactant. At the same time, plants selected from these crop and weed species and also barley (winter barley, Hordeum vulgare), […]), chickweed (common chickweed, Stellaria media), deadnettle (henbit deadnettle, Lamium amplexicaule), and canarygrass (littleseed canarygrass, Phalaris minor) were planted in pots containing Redi-Earth® planting medium (Scotts Company, 14111 Scottslawn Road, Marysville, Ohio 43041) comprising spaghnum peat moss, vermiculite, wetting agent and starter nutrients and treated with postemergence applications of test chemicals formulated in the same manner. Plants ranged in height from 2 to 18 cm (1- to 4-leaf stage) for postemergence treatments. Treated plants and controls were maintained in a greenhouse for 13 to 15 days, after which time all species were compared to controls and visually evaluated. Plant response ratings, summarized in Table C, are based on a scale of 0 to 100 where 0 is no effect and 100 is complete control. A dash (-) response means no test result.

crabgrass, large = test: Test C pre-/postemergence herbicide test; format: in vivo, Digitaria sanguinalis; conditions: Preemergence
From the text: as §1

johnsongrass = test: Test C pre-/postemergence herbicide test; format: in vivo, Sorghum halepense; conditions: Preemergence
From the text: as §1

ragweed = test: Test C pre-/postemergence herbicide test; format: in vivo, Ambrosia elatior; conditions: Preemergence
From the text: as §1

barnyardgrass [1] = test: Test C pre-/postemergence herbicide test; format: in vivo, Echinochloa crus-galli; conditions: Preemergence
From the text: as §1

waterhemp = test: Test C pre-/postemergence herbicide test; format: in vivo, Amaranthus rudis; conditions: Preemergence
From the text: as §1

velvetleaf = test: Test C pre-/postemergence herbicide test; format: in vivo, Abutilon theophrasti; conditions: Preemergence
From the text: as §1

sedge, umbrella = test: Test B flooded paddy test; format: in vivo, Cyperus difformis; conditions: 500 g ai/ha, Flood; scale of 0 to 100 where 0 is no effect and 100 is complete control
In short: (§2)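 2-leaf plants; flood 3 cm over soil; compound into paddy water; depth held. Greenhouse 13–15 d. Visual rating vs controls, 0 (no effect) to 100 (complete control); dash = not tested.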

barnyardgrass [2] = test: Test B flooded paddy test; format: in vivo, Echinochloa crus-galli; conditions: 500 g ai/ha, Flood; scale of 0 to 100 where 0 is no effect and 100 is complete control
In short: as §2

[3] = 31 g ai/ha, scale 0 to 100, 0 is no effect and 100 is complete control
[4] = 62 g ai/ha, scale 0 to 100 (0 no effect, 100 complete control)
[5] = 125 g ai/ha, scale 0 to 100 (0 no effect, 100 complete control)

Row | Structure (SMILES) | Ryegrass, Italian plant response rating (ryegrass, Italian; [3]) | Ryegrass, Italian plant response rating (ryegrass, Italian; [4]) | Plant response rating, Ryegrass, Italian (ryegrass, Italian; [5]) | Crabgrass, Large plant response rating (crabgrass, large; [3]) | Crabgrass, Large plant response rating (crabgrass, large; [4]) | Plant response rating, Crabgrass, Large (crabgrass, large; [5]) | Johnsongrass plant response rating (johnsongrass; [3]) | Johnsongrass plant response rating (johnsongrass; [4]) | Plant response rating, Johnsongrass (johnsongrass; [5]) | Ragweed plant response rating (ragweed; [4]) | Plant response rating, Ragweed (ragweed; [5]) | Barnyardgrass plant response rating (barnyardgrass [1]; [3]) | Plant response rating, Barnyardgrass (barnyardgrass [1]; [5]) | Waterhemp plant response rating (waterhemp; [3]) | Waterhemp plant response rating (waterhemp; [4]) | Velvetleaf plant response rating (velvetleaf; [3]) | Velvetleaf plant response rating (velvetleaf; [4]) | Plant response rating, Velvetleaf (velvetleaf; [5]) | also measured
1 | O=C1NCC(c2cccc(C(F)(F)F)c2)C1C(=O)Nc1ccccc1Cl (racemic) [Compound 189] | 0 | 30 | 45 | 95 | 95 | 98 | 0 | 0 | 15 | 0 | 0 | 85 | 90 | 0 | 5 | 0 | 0 | 0 | Plant response rating, Foxtail, Giant (giant foxtail; 125 g ai/ha, visual rating, 0 to 100 scale, 0 no effect, 100 complete control, approximately 10 days, preemergence): 90; Plant response rating, Foxtail, Giant (giant foxtail; Postemergence, 125 g ai/ha, 0 to 100 scale, 0 is no effect, 100 is complete control): 70; Foxtail, Giant plant response rating (0 to 100 scale, 0 is no effect, 100 is complete control) (giant foxtail; Postemergence, 500 g ai/ha): 90; Plant response rating, Foxtail, Giant (giant foxtail; preemergence, 500 g ai/ha, 0 to 100 scale, 0 is no effect and 100 is complete control): 90; Plant response rating, Ryegrass, Italian (ryegrass, Italian; 16 g ai/ha, scale 0 to 100): 0; Plant response rating, Crabgrass, Large (crabgrass, large; 16 g ai/ha, scale 0 to 100): 90; Plant response rating, Johnsongrass (johnsongrass; 16 g ai/ha, scale 0 to 100): 0; Ragweed plant response rating (ragweed; [3]): 0; Plant response rating, Ragweed (ragweed; 16 g ai/ha, scale 0 to 100): 0; Plant response rating, Barnyardgrass (barnyardgrass [1]; 62 g ai/ha, scale 0 to 100): 90; Plant response rating, Barnyardgrass (barnyardgrass [1]; 16 g ai/ha, scale 0 to 100): 45; Plant response rating, Waterhemp (waterhemp; [5]): 0; Plant response rating, Waterhemp (waterhemp; 16 g ai/ha, scale 0 to 100): 0; Plant response rating, Velvetleaf (velvetleaf; 16 g ai/ha, scale 0 to 100): 0
2 | O=C(Nc1ccccc1F)C1C(=S)NCC1c1cccc(C(F)(F)F)c1 (stereo not drawn) [Compound 274] | 0 | 0 | 5 | 85 | 90 | 98 | 0 | 0 | 0 | 0 | 0 | 55 | 85 | 0 | 0 | 0 | 20 | 20 | Plant response rating, Foxtail, Giant (giant foxtail; Postemergence, 1000 g ai/ha, 0 to 100 scale (0 no effect, 100 complete control)): 90; Plant response rating, Foxtail, Giant (giant foxtail; preemergence, 1000 g ai/ha, 0 to 100 scale): 90; Plant response rating, Sedge, Umbrella (sedge, umbrella): 0; Plant response rating, Barnyardgrass (barnyardgrass [2]): 0; Plant response rating (scale of 0 to 100), Ryegrass, Italian (ryegrass, Italian; 250 g ai/ha): 30; Plant response rating (scale of 0 to 100), Crabgrass, Large (crabgrass, large; 250 g ai/ha): 100; Plant response rating (scale of 0 to 100), Johnsongrass (johnsongrass; 250 g ai/ha): 30; Plant response rating (scale of 0 to 100), Ragweed (ragweed; 250 g ai/ha): 0; Barnyardgrass plant response rating (barnyardgrass [1]; [4]): 65; Plant response rating (scale of 0 to 100; 0 is no effect, 100 is complete control), Barnyardgrass (barnyardgrass [1]; 250 g ai/ha): 90; Plant response rating (scale of 0 to 100), Waterhemp (waterhemp; 250 g ai/ha): 0; Plant response rating (scale of 0 to 100), Velvetleaf (velvetleaf; 250 g ai/ha): 20
3 | O=C1NCC(c2ccc(F)c(F)c2)C1C(=O)Nc1cccc(F)c1 (racemic) [Compound 12] | – | – | – | – | – | – | – | – | – | – | – | – | – | – | – | – | – | – | Plant response rating, Foxtail, Giant (giant foxtail; Postemergence, 125 g ai/ha, 0 to 100 scale, 0 no effect, 100 complete control): 60; Plant response rating, Foxtail, Giant (giant foxtail; Postemergence, 500 g ai/ha, 0 to 100 scale (0 no effect, 100 complete control)): 80; Foxtail, Giant plant response rating (giant foxtail; Preemergence, 125 g ai/ha, visual rating on 0 to 100 scale (0 no effect, 100 complete control)): 70; Plant response rating, Foxtail, Giant (giant foxtail; preemergence, 500 g ai/ha, 0 to 100 scale): 90
